Reference: ChEMBL document CHEMBL1201862, “PubChem BioAssay data set” (2004)
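Values below derive from 48-hour exposures of cells grown in 96-well plates, with endpoints linearly interpolated between the two concentrations bracketing the appropriate inhibition level. GI50 marks 50% less growth.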 Active and inactive are the calls of the source. Rule as the data show it: active = GI50 up to about 1.1 µM and inactive = higher.

Key:
Assay in all cases: growth of human tumour cells (NCI), 48 h
SK-OV-3 = system: SK-OV-3
HOP-62 = system: HOP-62
SK-MEL-5 = system: SK-MEL-5
OVCAR-3 = system: OVCAR-3
SK-MEL-28 = system: SK-MEL-28
HT-29 = system: HT-29
NCI-H226 = system: NCI-H226
SNB-75 = system: SNB-75
EKVX = system: EKVX
RPMI-8226 = system: RPMI-8226
M14 = system: M14
COLO 205 = system: COLO 205
MOLT-4 = system: MOLT-4
HOP-92 = system: HOP-92
LOX IMVI = system: LOX IMVI
T47D = system: T47D
CAKI-1 = system: CAKI-1
HL-60 = system: HL-60
HCT-116 = system: HCT-116
786-0 = system: 786-0
SR = system: SR
OVCAR-5 = system: OVCAR-5
OVCAR-4 = system: OVCAR-4
K562 = system: K562
DU-145 = system: DU-145
CCRF-CEM = system: CCRF-CEM
MDA-MB-435 = system: MDA-MB-435
UO-31 = system: UO-31
SNB-19 = system: SNB-19
KM12 = system: KM12
SN12C = system: SN12C
SF-295 = system: SF-295
SF-539 = system: SF-539
RXF 393 = system: RXF 393
OVCAR-8 = system: OVCAR-8
A549 = system: A549
IGROV-1 = system: IGROV-1
SW-620 = system: SW-620
MDA-N = system: MDA-N
A498 = system: A498
ACHN = system: ACHN
Malme-3M = system: Malme-3M
Hs-578T = system: Hs-578T
PC-3 = system: PC-3
NCI-H522 = system: NCI-H522
TK-10 = system: TK-10
MCF7 = system: MCF7
SF-268 = system: SF-268
MDA-MB-231 = system: MDA-MB-231
UACC-257 = system: UACC-257
U-251 = system: U-251
SK-MEL-2 = system: SK-MEL-2
UACC-62 = system: UACC-62
NCI/ADR-RES = system: NCI/ADR-RES
NCI-H460 = system: NCI-H460
NCI-H23 = system: NCI-H23

Measured: GI50

O=C(O)CCC(=O)c1ccc(Cl)cc1
inactive: SK-OV-3 > 100 µM | HOP-62 > 100 µM | SK-MEL-5 > 100 µM | OVCAR-3 > 100 µM | SK-MEL-28 > 100 µM | HT-29 > 100 µM | NCI-H226 > 100 µM | SNB-75 > 100 µM | EKVX > 100 µM | RPMI-8226 > 100 µM | M14 > 100 µM | COLO 205 > 100 µM | MOLT-4 > 100 µM | HOP-92 > 100 µM | LOX IMVI > 100 µM | T47D > 100 µM | CAKI-1 > 100 µM | HL-60 > 100 µM | HCT-116 > 100 µM | 786-0 > 100 µM | SR > 100 µM | OVCAR-5 > 100 µM | OVCAR-4 > 100 µM | K562 > 100 µM | DU-145 > 100 µM | CCRF-CEM > 100 µM | MDA-MB-435 > 100 µM | UO-31 > 100 µM | SNB-19 > 100 µM | KM12 > 100 µM | SN12C > 100 µM | SF-295 > 100 µM | SF-539 > 100 µM | RXF 393 > 100 µM | OVCAR-8 > 100 µM | A549 > 100 µM | IGROV-1 > 100 µM | SW-620 > 100 µM | MDA-N > 100 µM

O=C1C(=c2cc3c(c4ccccc24)=NC24CCCCC2C(c2ccccc2)C=C(c2ccccc2)N34)C(=O)c2ccccc21 (centres undefined)
inactive: SK-OV-3 > 100 µM | HOP-62 74 µM | SK-MEL-5 26.4 µM | OVCAR-3 22 µM | SK-MEL-28 47.2 µM | HT-29 53 µM | NCI-H226 44.3 µM | A498 > 100 µM | SNB-75 54 µM | ACHN 54.3 µM | Malme-3M 45.1 µM | Hs-578T 34 µM | EKVX 12.7 µM | RPMI-8226 11.4 µM | PC-3 25.8 µM | NCI-H522 16.7 µM | TK-10 > 100 µM | M14 44 µM | MCF7 14.4 µM | COLO 205 33 µM | MOLT-4 16.6 µM | HOP-92 27.9 µM | LOX IMVI 34.2 µM | T47D 3.48 µM | SF-268 30.3 µM | CAKI-1 53 µM | HL-60 27.7 µM | HCT-116 36.2 µM | 786-0 48.6 µM | SR 26.4 µM | OVCAR-5 > 100 µM | OVCAR-4 15.5 µM | K562 23 µM | MDA-MB-231 15.4 µM | DU-145 57.3 µM | CCRF-CEM 15.6 µM | MDA-MB-435 22 µM | UO-31 22.9 µM | SNB-19 45.2 µM | UACC-257 > 100 µM | KM12 30.4 µM | U-251 36.8 µM | SN12C > 100 µM | SF-295 > 100 µM | SK-MEL-2 42.5 µM | SF-539 41.1 µM | RXF 393 18.5 µM | OVCAR-8 50.4 µM | A549 41 µM | IGROV-1 3.08 µM | SW-620 37.7 µM | MDA-N 36.9 µM

CCN1C(=O)CS/C1=N/NC(=O)C(O)(c1ccccc1)C1C=CC=CC1 (centres undefined)
inactive: SK-OV-3 > 10 µM | HOP-62 > 10 µM | SK-MEL-5 > 10 µM | SK-MEL-28 > 10 µM | UACC-62 > 10 µM | SNB-75 > 10 µM | ACHN > 10 µM | Malme-3M > 10 µM | NCI/ADR-RES > 10 µM | RPMI-8226 > 10 µM | NCI-H460 > 10 µM | M14 > 10 µM | MCF7 > 10 µM | COLO 205 > 10 µM | MOLT-4 > 10 µM | HOP-92 > 10 µM | T47D > 10 µM | SF-268 > 10 µM | CAKI-1 > 10 µM | HL-60 > 10 µM | SR > 10 µM | OVCAR-5 > 10 µM | OVCAR-4 > 10 µM | K562 > 10 µM | CCRF-CEM > 10 µM | MDA-MB-435 > 10 µM | NCI-H23 > 10 µM | U-251 > 10 µM | SK-MEL-2 > 10 µM | RXF 393 > 10 µM | A549 > 10 µM | IGROV-1 > 10 µM | SW-620 > 10 µM
